Measurements: patent US8263056B2, “Dyed-hair-binding peptides and peptide-based hair reagents for personal care” (E I du Pont de Nemours and Company, priority 2007, dated 2012)

Conditions: read-out: EC50 (concentration at which half the maximum binding was observed by measuring A405 nm), binding to dyed hair, ELISA-type assay
Source text: Each selection round was monitored for enrichment of phage displaying dyed-hair-binding peptides using ELISA-like assays in the deep well plates performed using an anti-M13 phage antibody conjugated to horseradish-peroxidase, followed by the addition of a chromogenic agent ABTS (2,2′-azino-bis(3-ethylbenzthiazoline-6-sulphonic acid)). The plates were read at 405 nm.
Relative binding strengths of the phage can also be determined by testing serial dilutions of the phage for binding to dyed hair in an ELISA. For example, serial dilutions of the display-selected clones were exposed to dyed hair in an ELISA. […] Primers against the phage vector sequence (available from New England BIOLABS®) that flank the insertion site were used to determine the DNA sequence encoding the peptide for the phage in each group. […] The DNA sequences encoding dyed-hair-binding peptides isolated were determined. Peptides Dye-1 through Dye-16 were those sequenced after round 4 of selection. Peptides Dye 17 through Dye-28 were those isolated and sequenced after a fifth round of selection.
The ELISA-type assay described in Example 1 was used to evaluate the affinity of dyed-hair-binding peptides for dyed hair. All of the synthesize peptides in Table 2 were evaluated for their ability to bind to dyed hair versus two negative controls (a non-selected peptide and a blank (no peptide)).
The EC50 values (the concentration at which half the maximum binding was observed by measuring A405 nm) were deduced and given in Table 3.

Substance | EC50 [nM]
LLSDFHYGDMWDASR-GSSGK (biotin) [Aff15016] | ~1000
NYNYNYNYQYSSR-GSSGK (biotin) [Aff15011] | > 10000
QYYQDYQYYHSSR-GSSK (biotin) [Aff15029] | ~1000
SSNDSNVSWFHYYASGLTSSR-GSSG-SRKSSQKNPHHPKPPKKPTAR-GSSGK (biotin) [Aff15025] | ~25
SSNDSNVSWFHYYASGLTSSR-GSSGK-(biotin) [Aff15013] | ~1000
YHYDYDHYYESSR-GSSGK (biotin) [Aff15030] | ~1000
YYYDYYQQDYSSR-GSSGK (biotin) [Aff15027] | ~1000
